Experimental data taken from ChEMBL document CHEMBL1201862, “PubChem BioAssay data set” (2004).
Calls of active or inactive are those of the source.

Key:
[1] = biological target: T1, Tyrosine-protein phosphatase non-receptor type 22 (Homo sapiens, UniProt Q9Y2R2); type: functional
T1 sequence (Q9Y2R2 whole entry): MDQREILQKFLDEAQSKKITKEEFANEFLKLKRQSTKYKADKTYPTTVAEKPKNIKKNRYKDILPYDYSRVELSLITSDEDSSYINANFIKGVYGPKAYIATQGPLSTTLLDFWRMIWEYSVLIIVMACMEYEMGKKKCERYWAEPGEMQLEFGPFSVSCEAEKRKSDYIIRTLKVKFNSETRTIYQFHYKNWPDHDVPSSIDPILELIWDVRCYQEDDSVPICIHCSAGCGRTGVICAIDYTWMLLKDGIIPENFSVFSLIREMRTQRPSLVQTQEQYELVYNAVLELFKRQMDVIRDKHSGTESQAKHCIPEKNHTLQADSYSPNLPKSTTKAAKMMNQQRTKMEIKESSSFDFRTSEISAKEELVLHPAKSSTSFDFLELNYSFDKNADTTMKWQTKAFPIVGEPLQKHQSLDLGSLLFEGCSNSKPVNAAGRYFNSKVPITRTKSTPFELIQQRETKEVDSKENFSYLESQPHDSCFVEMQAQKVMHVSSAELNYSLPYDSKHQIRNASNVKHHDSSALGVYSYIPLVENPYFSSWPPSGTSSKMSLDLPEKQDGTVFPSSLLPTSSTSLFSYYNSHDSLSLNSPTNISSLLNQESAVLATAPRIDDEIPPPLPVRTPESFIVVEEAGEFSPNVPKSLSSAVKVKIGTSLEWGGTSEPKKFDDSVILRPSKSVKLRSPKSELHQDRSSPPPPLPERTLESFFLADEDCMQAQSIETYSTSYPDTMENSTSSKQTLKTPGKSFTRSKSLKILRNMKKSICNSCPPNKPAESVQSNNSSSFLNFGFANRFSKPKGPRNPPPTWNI

[2] = biological target: T2, Tyrosine-protein phosphatase non-receptor type 7 (Homo sapiens, UniProt P35236); type: functional
T2 sequence (P35236 whole entry): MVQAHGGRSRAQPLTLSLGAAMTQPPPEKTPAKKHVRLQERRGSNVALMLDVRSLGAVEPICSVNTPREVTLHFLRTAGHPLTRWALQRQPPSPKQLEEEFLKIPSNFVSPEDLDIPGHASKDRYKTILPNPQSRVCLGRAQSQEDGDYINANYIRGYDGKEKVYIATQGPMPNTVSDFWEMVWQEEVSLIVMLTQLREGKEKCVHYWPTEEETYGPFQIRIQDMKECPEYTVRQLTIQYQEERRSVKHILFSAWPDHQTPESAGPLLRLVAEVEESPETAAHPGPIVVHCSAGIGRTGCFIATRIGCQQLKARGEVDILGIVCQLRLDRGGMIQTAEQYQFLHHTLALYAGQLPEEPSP

[3] = biological target: T1, Tyrosine-protein phosphatase non-receptor type 22; type: functional; remark: listed apart in the source
[4] = biological target: T3, Alkaline phosphatase, tissue-nonspecific isozyme (Homo sapiens, UniProt P05186); test: TNAP enzyme activators, dose response, selectivity assay for mouse IAP activator project, biochemical, TNAP isozyme, mouse IAP uHTS hits (AID 488880); type: functional
T3 sequence (P05186 whole entry): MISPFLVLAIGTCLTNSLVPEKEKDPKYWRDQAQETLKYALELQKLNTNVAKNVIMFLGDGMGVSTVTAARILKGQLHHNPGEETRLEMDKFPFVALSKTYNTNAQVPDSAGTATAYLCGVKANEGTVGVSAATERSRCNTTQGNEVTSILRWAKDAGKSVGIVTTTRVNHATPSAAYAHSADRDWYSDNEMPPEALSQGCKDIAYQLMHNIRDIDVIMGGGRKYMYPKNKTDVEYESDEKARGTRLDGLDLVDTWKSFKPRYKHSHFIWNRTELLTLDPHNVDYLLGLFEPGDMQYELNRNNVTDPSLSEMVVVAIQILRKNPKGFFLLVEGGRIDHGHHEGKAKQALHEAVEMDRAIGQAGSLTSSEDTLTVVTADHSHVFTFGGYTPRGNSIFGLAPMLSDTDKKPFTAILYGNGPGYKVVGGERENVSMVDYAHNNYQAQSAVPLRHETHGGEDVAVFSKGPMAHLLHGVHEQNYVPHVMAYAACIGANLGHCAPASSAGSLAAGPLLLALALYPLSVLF

[5] = biological target: Intestinal-type alkaline phosphatase (Homo sapiens, UniProt P09923); test: activation of human intestinal alkaline phosphatase – biochemical, dose response (AID 488873); type: functional
[6] = biological target: Intestinal-type alkaline phosphatase (Mus musculus, UniProt P24822); test: mouse intestinal alkaline phosphatase activators, dose response, biochemical, luminescence, uHTS hits (AID 488783); type: functional
[7] = tested on: BJ; test: cells; type: functional, cell-based; settings: Homo sapiens
[8] = biological target: T4, Sentrin-specific protease 6 (Homo sapiens, UniProt Q9GZR1); type: functional;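 further: Luminescence-based dose-response confirmatory assay of SENP6 inhibition, following up an ultra-high-throughput screen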
T4 sequence (Q9GZR1 whole entry): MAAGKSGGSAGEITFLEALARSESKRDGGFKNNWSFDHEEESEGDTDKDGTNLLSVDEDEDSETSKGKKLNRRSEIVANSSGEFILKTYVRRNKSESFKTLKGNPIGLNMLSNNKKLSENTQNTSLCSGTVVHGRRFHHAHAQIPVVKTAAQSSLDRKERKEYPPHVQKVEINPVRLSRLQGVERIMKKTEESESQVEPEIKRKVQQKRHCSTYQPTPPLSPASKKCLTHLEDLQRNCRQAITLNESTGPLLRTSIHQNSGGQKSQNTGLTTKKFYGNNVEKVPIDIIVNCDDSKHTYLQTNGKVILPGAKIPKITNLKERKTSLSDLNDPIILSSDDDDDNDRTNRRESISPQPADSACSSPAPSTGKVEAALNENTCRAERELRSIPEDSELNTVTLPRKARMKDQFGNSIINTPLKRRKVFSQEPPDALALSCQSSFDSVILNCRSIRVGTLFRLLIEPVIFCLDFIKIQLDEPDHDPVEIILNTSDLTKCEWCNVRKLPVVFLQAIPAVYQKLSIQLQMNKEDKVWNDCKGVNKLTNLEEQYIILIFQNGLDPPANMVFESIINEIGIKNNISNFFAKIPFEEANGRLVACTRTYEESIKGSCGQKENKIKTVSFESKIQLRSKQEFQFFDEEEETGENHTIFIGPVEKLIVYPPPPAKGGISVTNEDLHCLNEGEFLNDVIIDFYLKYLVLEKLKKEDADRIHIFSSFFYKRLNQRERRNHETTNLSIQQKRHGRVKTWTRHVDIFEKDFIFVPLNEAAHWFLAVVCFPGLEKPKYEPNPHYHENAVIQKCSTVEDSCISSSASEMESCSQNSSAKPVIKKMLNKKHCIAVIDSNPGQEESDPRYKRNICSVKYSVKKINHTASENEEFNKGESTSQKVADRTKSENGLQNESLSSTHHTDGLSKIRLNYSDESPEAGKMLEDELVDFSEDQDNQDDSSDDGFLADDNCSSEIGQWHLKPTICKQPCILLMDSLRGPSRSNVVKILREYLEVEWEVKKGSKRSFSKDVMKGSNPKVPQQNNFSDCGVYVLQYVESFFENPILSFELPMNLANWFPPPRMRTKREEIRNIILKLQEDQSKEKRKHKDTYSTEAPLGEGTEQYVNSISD

[9] = biological target: Mu-type opioid receptor (Homo sapiens, UniProt P35372); test: HTS Image-Based Screen for Agonists of the MOR Receptor. [Related pubchem assays (depositor defined):AID1777, AID1785, AID1786, AID2133]; type: functional;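 further: imaging of beta-arrestin GFP recruitment into spots after receptor activation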
[10] = biological target: T5, Sentrin-specific protease 7 (Homo sapiens, UniProt Q9BQF6); type: functional;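 further: Luminescence-based dose-response confirmation of ultra-high-throughput screening hits, measuring inhibition of SENP7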
T5 sequence (Q9BQF6 whole entry): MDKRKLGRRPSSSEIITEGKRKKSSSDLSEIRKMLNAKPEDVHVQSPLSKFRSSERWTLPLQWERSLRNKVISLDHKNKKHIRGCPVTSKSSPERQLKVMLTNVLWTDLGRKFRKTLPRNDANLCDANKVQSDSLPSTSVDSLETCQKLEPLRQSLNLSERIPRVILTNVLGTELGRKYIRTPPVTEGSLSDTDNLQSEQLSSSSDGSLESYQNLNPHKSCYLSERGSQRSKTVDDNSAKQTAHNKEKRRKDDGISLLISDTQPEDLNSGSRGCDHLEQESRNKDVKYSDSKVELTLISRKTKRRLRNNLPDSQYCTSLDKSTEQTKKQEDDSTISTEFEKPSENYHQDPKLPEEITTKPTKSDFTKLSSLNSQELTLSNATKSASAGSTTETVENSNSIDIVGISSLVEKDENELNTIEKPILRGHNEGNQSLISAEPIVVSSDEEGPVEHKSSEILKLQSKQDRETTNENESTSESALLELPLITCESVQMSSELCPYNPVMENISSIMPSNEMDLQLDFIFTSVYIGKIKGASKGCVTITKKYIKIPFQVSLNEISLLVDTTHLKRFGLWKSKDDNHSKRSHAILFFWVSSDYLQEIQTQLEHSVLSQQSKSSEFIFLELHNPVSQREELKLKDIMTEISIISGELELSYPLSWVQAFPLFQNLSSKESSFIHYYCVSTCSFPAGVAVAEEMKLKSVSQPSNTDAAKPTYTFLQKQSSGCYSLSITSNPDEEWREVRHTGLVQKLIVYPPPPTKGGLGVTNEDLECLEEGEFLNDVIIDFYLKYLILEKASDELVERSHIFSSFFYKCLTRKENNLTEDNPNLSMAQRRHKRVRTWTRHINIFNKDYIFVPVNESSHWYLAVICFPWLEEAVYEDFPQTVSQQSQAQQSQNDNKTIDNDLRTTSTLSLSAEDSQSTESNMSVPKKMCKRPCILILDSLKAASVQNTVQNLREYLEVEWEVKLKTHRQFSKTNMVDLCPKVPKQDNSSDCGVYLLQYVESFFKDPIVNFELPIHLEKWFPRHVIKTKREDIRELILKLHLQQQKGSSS

[11] = inhibitors of firefly luciferase expression or activity, dose response, H4 neuroglioma cells, luminescence (AID 1990); type: functional, cell-based
[12] = biological target: T6, Delta-type opioid receptor (Homo sapiens, UniProt P41143); test: HTS Image-Based Screen for Antagonists of the DOR Receptor. [Related pubchem assays (depositor defined):AID1777, AID1785, AID1786, AID2133]; type: functional
[13] = inhibitors of SNCA 5'UTR-driven reporter translation, confirmation, H4 neuroglioma cells, luminescence (AID 1988); type: functional, cell-based
[14] = biological target: T6, Delta-type opioid receptor; test: HTS Image-Based Screen for Agonists of the DOR Receptor. [Related pubchem assays (depositor defined):AID1777, AID1786, AID2133]; type: functional
[15] = tested on: BJ; test: cytotoxicity toward BJ-TERT-LT-ST fibroblasts, dose response, cell-based, RAS-independent, luminescence (AID 1935); type: functional; settings: Homo sapiens;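 further: BJ fibroblasts immortalized with TERT plus LT and ST oncogenes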
[16] = Luminescence Cell-Based Dose Response HTS to Identify Inhibitors of 5'UTR Stem-Loop Driven Prion Protein mRNA Translation in H4 Neuroglioblastoma Cells. [Related pubchem assays: 1827 (Project Summary), 1813 (Primary HTS)]; type: functional
[17] = cells; type: functional, cell-based
[18] = cytotoxicity toward DRD oncogenic fibroblasts, dose response, cell-based, non-viral oncogenic, luminescence (AID 1934); type: functional; settings: Homo sapiens
[19] = Luminescence-based dose response cell-based high throughput screening assay for cytotoxic compounds using the IEC-6 intestinal epithelial cell line. [Related pubchem assays: 1858 (Summary AID.), 1825 (Counterscreen.), 1907 (Confirmation screen.)]; type: functional
[20] = tested on: BJ; test: cytotoxicity toward BJ-TERT fibroblasts, dose response, cell-based, RAS-independent, luminescence (AID 1933); type: functional; settings: Homo sapiens
[21] = biological target: T7, Kappa-type opioid receptor (Homo sapiens, UniProt P41145); type: functional
[22] = biological target: T8, Caspase-3 (Homo sapiens, UniProt P42574); type: functional;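 further: Dose-response selectivity test against caspase-3 for candidate inhibitors of sentrin-specific proteases (SENPs)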
T8 sequence (P42574 whole entry): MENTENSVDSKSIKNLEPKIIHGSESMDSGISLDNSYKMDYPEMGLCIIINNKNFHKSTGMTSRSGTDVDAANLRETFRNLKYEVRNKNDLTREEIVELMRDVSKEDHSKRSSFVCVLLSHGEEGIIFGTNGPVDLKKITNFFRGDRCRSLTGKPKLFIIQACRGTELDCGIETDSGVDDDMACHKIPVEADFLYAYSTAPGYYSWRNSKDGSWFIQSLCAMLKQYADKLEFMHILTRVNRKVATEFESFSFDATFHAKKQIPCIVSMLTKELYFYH

[23] = cells; type: functional, cell-based; remark: listed apart in the source
[24] = biological target: T7, Kappa-type opioid receptor; type: functional; remark: listed apart in the source
[25] = tested on: INS1; test: beta cell apoptosis inhibitors, cytokine rescue, dose response, luminescence, retest (AID 449756); type: functional, cell-based; settings: Rattus norvegicus;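 further: cell death triggered by IL-1 beta plus TNF-alpha plus IFN-gamma mixture; protective hits raise ATP signal compared with cytokine alone wells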
[26] = biological target: T9, Sentrin-specific protease 8 (Homo sapiens, UniProt Q96LD8); type: functional;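 further: luminescence read-out of SENP8 inhibition, dose-response confirmation following an ultra-high-throughput screen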
T9 sequence (Q96LD8 whole entry): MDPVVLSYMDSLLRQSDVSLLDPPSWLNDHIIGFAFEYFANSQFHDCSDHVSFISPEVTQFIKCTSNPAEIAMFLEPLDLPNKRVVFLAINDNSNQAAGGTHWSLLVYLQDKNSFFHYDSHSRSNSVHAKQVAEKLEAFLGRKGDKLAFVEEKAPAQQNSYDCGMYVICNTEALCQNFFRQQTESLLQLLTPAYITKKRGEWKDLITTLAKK

[27] = biological target: Beta-galactosidase (Escherichia coli, UniProt Q8VNN2); type: functional
Chain of Beta-galactosidase (Q8VNN2 whole entry): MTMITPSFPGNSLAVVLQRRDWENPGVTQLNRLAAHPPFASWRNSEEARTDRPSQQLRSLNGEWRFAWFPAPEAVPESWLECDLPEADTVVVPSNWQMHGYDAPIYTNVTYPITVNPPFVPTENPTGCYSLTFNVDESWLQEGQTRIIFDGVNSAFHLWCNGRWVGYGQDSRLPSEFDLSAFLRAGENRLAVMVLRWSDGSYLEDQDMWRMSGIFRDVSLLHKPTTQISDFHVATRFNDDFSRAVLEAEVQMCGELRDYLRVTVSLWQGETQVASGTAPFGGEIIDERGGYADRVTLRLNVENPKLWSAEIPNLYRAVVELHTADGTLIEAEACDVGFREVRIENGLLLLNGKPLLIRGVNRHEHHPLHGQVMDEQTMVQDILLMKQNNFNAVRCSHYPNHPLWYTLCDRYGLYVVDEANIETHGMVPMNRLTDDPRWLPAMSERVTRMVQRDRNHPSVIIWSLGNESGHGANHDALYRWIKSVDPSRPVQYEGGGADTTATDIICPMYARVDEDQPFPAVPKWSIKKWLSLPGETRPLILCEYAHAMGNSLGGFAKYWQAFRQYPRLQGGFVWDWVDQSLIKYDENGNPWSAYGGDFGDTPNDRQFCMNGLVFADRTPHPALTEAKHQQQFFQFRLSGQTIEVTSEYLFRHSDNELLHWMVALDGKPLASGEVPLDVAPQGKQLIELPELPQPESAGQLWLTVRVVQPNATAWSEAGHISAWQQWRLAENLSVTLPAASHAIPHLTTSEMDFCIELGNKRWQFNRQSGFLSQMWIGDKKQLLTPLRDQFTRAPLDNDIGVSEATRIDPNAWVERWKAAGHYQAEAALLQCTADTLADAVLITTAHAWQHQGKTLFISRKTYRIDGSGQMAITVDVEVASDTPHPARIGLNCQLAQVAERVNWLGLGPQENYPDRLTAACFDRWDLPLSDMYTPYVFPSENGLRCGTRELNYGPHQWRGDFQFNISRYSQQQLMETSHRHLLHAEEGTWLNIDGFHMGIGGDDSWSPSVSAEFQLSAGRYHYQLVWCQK

T6 sequence (P41143 whole entry): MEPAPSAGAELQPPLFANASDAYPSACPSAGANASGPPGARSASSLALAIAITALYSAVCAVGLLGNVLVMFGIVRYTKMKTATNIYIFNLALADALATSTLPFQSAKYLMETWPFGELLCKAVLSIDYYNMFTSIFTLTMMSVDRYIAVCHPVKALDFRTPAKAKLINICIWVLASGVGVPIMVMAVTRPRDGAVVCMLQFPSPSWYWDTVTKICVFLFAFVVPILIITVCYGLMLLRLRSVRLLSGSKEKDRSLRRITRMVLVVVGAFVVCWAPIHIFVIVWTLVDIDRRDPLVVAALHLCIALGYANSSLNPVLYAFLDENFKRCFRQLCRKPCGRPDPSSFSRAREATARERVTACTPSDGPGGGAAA
T7 sequence (P41145 whole entry): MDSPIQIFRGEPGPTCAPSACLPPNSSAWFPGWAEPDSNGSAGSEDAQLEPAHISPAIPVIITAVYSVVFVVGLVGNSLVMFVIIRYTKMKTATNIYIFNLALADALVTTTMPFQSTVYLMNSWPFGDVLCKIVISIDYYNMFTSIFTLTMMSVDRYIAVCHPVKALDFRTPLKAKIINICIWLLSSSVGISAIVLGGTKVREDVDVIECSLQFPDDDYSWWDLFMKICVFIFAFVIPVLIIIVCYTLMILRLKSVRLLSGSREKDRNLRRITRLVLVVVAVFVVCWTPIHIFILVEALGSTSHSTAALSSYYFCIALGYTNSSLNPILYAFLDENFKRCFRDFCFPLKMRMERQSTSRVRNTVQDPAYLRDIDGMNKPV
Chain of Intestinal-type alkaline phosphatase (Homo sapiens, UniProt P09923) (P09923 whole entry): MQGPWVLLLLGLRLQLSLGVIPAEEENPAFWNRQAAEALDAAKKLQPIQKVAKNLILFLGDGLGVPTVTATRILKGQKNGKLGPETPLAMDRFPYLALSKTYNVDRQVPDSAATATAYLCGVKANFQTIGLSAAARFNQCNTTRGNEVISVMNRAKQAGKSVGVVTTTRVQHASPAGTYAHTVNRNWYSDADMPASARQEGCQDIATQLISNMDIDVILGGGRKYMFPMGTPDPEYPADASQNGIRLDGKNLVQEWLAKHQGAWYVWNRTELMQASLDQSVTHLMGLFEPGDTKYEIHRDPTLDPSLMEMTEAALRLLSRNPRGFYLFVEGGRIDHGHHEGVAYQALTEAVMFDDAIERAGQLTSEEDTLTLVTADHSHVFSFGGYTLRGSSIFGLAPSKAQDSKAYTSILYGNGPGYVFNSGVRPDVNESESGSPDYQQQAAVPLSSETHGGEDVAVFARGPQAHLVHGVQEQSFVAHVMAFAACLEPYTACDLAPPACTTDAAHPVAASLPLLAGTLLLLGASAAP
Chain of Mu-type opioid receptor (P35372 whole entry): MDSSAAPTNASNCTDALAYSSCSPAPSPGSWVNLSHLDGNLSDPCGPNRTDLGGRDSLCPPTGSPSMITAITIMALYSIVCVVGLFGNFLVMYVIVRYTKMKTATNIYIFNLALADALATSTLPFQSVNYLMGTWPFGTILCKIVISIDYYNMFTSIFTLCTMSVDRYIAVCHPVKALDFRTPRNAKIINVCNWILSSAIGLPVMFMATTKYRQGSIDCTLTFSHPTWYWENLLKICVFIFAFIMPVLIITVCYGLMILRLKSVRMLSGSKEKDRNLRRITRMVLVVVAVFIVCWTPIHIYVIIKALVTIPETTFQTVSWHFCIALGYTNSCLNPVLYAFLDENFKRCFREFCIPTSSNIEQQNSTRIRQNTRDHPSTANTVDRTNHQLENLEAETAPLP
Chain of Intestinal-type alkaline phosphatase (Mus musculus, UniProt P24822) (P24822 whole entry): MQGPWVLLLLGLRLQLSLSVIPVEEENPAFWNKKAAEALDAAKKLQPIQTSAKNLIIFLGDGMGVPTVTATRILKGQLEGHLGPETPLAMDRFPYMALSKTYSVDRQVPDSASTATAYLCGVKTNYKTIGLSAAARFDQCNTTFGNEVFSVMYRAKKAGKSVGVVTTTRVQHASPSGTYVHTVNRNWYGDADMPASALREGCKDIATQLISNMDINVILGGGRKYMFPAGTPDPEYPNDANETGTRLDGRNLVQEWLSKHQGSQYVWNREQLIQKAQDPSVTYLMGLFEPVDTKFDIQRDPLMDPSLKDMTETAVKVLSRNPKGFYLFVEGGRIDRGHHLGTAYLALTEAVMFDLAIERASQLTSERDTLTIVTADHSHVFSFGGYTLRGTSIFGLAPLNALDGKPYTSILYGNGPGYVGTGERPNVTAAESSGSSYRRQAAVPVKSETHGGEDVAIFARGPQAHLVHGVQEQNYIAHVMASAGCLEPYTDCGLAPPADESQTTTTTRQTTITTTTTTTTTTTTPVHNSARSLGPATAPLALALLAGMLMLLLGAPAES

COc1ccc2c(OC)cc(=O)n(C)c2c1
inactive: IC50 [1] > 79.4 µM | IC50 [2] > 79.4 µM | IC50 [3] > 79.4 µM

Nc1cc2nc3ccccc3oc-2cc1=O
active: EC50 [4] 74.5 µM | EC50 [5] 72.1 µM | EC50 [6] 64.1 µM

COc1cccc2sc(Nc3nc(-c4ccccn4)cs3)nc12
inactive: EC50 [9] > 32 µM | IC50 [12] > 32 µM | EC50 [14] > 32 µM | IC50 [26] > 100 µM | EC50 [27] > 31.5 µM
active: EC50 [7] 12.2 µM | IC50 [8] 6.04 µM | IC50 [10] 4.38 µM | EC50 [11] 84.1 µM | EC50 [13] 2.23 µM | EC50 [16] 0.126 µM | EC50 [17] 64.5 µM | IC50 [19] 1.4 µM | IC50 [22] 31.7 µM | EC50 [23] 6.91 µM | IC50 [24] 1.62 µM | AC50 [25] 1.17 µM
inconclusive: EC50 [15] 8.02 µM | EC50 [18] 17.5 µM | EC50 [20] 12.3 µM
> 32 µM: IC50 [21]
